{"source": "paper PMC3407089", "about": "“Influence of GABAA Receptor α Subunit Isoforms on the Benzodiazepine Binding Site” (PLoS ONE, 2012)", "key": {"α5β1γ2 receptors": {"molecular_target": "α5β1γ2 receptors (Rattus norvegicus, UniProt P18508+P19969)", "sequence (P19969 32-464 limits assumed)": "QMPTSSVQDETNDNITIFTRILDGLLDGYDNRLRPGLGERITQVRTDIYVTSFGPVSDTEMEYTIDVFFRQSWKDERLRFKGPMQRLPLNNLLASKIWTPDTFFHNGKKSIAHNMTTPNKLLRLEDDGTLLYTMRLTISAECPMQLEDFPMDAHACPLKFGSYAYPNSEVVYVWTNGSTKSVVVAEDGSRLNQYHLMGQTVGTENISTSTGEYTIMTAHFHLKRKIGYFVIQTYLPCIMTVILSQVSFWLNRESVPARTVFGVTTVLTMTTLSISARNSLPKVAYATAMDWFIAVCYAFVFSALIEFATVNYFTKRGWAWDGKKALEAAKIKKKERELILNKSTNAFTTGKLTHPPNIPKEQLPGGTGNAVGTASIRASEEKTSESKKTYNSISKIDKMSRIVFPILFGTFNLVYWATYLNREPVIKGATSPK", "sequence (P15431 26-474 partner)": "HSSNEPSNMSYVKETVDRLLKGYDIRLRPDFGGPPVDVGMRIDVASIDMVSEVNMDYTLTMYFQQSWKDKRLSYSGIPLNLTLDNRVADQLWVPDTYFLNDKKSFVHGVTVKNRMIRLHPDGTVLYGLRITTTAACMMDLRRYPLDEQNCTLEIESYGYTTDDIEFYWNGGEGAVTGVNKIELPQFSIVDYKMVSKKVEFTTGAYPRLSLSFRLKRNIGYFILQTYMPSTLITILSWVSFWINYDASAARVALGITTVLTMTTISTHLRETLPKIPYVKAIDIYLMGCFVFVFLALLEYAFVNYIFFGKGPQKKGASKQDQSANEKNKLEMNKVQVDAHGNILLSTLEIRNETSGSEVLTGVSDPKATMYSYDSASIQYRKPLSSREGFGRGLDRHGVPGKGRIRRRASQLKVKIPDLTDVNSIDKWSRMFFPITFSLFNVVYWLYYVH", "sequence (P18508 39-466)": "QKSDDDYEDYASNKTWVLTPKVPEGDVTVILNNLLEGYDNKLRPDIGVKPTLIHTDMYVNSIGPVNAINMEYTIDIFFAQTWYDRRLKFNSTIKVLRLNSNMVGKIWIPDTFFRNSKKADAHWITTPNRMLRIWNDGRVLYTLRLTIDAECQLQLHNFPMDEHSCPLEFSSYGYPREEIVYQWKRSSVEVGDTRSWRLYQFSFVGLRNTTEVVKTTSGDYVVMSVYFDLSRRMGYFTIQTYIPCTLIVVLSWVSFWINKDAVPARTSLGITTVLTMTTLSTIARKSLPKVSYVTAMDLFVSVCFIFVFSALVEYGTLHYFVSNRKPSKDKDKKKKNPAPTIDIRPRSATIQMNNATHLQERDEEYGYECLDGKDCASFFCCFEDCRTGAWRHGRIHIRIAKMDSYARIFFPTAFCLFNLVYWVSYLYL", "test": "biochemical", "quoted_text": "Culturing of cells and membrane preparation were done as described before [30].\nFor this affinity estimate, membranes were re-suspended in phosphate buffer using a Teflon homogenizer. […] The final protein concentration was 0.1–1 mg of protein/ml. […] Membranes were collected by rapid vacuum filtration on GF/C filters. After three washing steps (3 sec each) with 5 ml of phosphate buffer, the filter-retained radioactivity was determined by liquid scintillation counting."}, "[1]": {"molecular_target": "α2S205Cβ2γ2 GABAA receptor (Rattus norvegicus, UniProt P18508+P23576, S233C)", "sequence (P23576 29-451 S233C)": "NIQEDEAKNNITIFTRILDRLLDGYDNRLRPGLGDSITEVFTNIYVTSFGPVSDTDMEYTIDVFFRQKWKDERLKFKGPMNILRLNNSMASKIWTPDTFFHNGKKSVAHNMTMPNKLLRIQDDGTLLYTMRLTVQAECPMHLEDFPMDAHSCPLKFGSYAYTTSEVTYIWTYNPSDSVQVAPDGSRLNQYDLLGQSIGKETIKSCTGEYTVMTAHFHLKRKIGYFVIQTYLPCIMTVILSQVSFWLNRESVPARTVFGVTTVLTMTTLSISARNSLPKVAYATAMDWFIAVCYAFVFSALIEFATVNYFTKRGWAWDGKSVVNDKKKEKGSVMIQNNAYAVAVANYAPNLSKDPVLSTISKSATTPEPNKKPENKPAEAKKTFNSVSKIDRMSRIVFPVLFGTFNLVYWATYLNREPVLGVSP", "sequence (P18508 39-466, stated change not applied)": "as the sequence (P18508 39-466) above", "sequence (P63138 26-474 partner)": "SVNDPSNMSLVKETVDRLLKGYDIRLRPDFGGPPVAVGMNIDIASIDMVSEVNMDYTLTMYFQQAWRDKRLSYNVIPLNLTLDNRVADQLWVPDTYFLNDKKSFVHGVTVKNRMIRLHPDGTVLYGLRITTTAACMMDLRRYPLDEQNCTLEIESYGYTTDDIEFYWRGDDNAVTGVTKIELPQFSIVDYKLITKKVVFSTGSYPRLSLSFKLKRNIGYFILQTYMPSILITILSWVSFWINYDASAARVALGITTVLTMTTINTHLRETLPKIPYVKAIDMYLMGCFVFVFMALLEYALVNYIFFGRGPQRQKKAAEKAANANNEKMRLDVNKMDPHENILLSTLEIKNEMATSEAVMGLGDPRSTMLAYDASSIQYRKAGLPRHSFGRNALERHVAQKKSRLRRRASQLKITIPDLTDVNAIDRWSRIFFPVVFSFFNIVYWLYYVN", "test": "Covalent reaction at the functional level (two-electrode voltage clamp, Xenopus oocytes)", "format": "cell-based", "conditions": "after 10 µM 3-NCS and removal of non-covalently reacted 3-NCS; read-out: % allosteric modulation, 3-NCS", "description": "(§1) Capped cRNAs were synthesized (Ambion, Austin, TX, USA) from the linearized plasmids with a cytomegalovirus promotor (pCMVvectors) containing the different subunits, respectively. A poly-A tail of about 400 residues was added to each transcript using yeast poly- A polymerase (United States Biologicals, Cleveland, OH, USA). The concentration of the cRNA was quantified on a formaldehyde gel using Radiant Red stain (Bio-Rad) for visualization of the RNA. Known concentrations of RNA ladder (Invitrogen) were loaded as standard on the same gel. cRNAs were precipitated in ethanol/isoamylalcohol 19∶ 1, the dried pellet dissolved in water and stored at −80°C. cRNA mixtures were prepared from these stock solutions and stored at −80°C. Xenopus laevis oocytes were prepared, injected and defolliculated as described previously, [39]. They were injected with 50 nL of the cRNA solution containing wild type or mutated α1 or α2, α3, α5, α6 and wild type β2 and γ2 subunits at a concentration of 10 nM : 10 nM : 50 nM [40] and then incubated in modified Barth’s solution at +18°C for at least 24 h before the measurements.\n(§2) Tests with a model oocyte were performed to ensure linearity in the larger current range.\n(§3) Electrophysiological experiments were performed by using the two-electrode voltage clamp method at a holding potential of −80 mV. The perfusion medium contained 90 mM NaCl, 1 mM KCl, 1 mM MgCl2, 1 mM CaCl2, and 5 mM Na-HEPES (pH 7.4) and was applied by gravity flow 6 ml/min. The perfusion medium was applied through a glass capillary with an inner diameter of 1.35 mm, the mouth of which was placed about 0.4 mm from the surface of the oocyte. Allosteric modulation via the benzodiazepine site was measured at a GABA concentration eliciting 2–5% of the maximal GABA current amplitude."}, "[2]": {"molecular_target": "T1, α1S205Cβ2γ2 GABAA receptor (Rattus norvegicus, UniProt P18508+P62813, S232C)", "T1 sequence (P62813 28-455 S232C)": "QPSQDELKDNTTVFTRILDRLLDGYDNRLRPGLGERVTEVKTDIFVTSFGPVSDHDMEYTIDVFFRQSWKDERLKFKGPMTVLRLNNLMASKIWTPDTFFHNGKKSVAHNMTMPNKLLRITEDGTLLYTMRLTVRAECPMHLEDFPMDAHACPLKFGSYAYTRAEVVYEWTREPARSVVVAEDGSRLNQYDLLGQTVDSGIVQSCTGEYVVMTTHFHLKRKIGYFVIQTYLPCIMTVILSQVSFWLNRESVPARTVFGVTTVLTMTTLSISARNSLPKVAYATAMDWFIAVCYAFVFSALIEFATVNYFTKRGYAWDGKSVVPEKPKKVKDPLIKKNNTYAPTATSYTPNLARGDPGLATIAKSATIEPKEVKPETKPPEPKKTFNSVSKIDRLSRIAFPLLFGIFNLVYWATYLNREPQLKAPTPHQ", "T1 sequence (P18508 39-466)": "as the sequence (P18508 39-466) above", "T1 sequence (P63138 26-474 partner)": "as the sequence (P63138 26-474 partner) above", "test": "Covalent reaction at the functional level (two-electrode voltage clamp, Xenopus oocytes)", "format": "cell-based", "conditions": "after 10 µM 3-NCS and removal of non-covalently reacted 3-NCS; read-out: % allosteric modulation, 3-NCS", "description": "as §1, §2, §3"}, "[3]": {"molecular_target": "α2S204Cβ2γ2 GABAA receptor (Rattus norvegicus, UniProt P18508+P23576, S232C)", "sequence (P23576 29-451 S232C)": "as the sequence (P23576 29-451 S233C) above, with S204C, C205S counted along it", "sequence (P18508 39-466)": "as the sequence (P18508 39-466) above", "sequence (P63138 26-474 partner)": "as the sequence (P63138 26-474 partner) above", "test": "Covalent reaction at the functional level (two-electrode voltage clamp, Xenopus oocytes)", "format": "cell-based", "conditions": "after 10 µM 3-NCS and removal of non-covalently reacted 3-NCS; read-out: % allosteric modulation, 3-NCS", "description": "as §1, §2, §3"}, "[4]": {"molecular_target": "α1T206Cβ2γ2 GABAA receptor (Rattus norvegicus, UniProt P18508+P62813, T233C)", "sequence (P62813 28-455 T233C)": "as the sequence (P62813 28-455 S232C) above, with C205S, T206C counted along it", "sequence (P18508 39-466)": "as the sequence (P18508 39-466) above", "sequence (P63138 26-474 partner)": "as the sequence (P63138 26-474 partner) above", "test": "Covalent reaction at the functional level (two-electrode voltage clamp, Xenopus oocytes)", "format": "cell-based", "conditions": "after 10 µM 3-NCS and removal of non-covalently reacted 3-NCS; read-out: % allosteric modulation, 3-NCS", "description": "as §1, §2, §3"}, "[5]": {"molecular_target": "α2T206Cβ2γ2 GABAA receptor (Rattus norvegicus, UniProt P18508+P23576, T234C)", "sequence (P23576 29-451 T234C)": "as the sequence (P23576 29-451 S233C) above, with C205S, T206C counted along it", "sequence (P18508 39-466)": "as the sequence (P18508 39-466) above", "sequence (P63138 26-474 partner)": "as the sequence (P63138 26-474 partner) above", "test": "Covalent reaction at the functional level (two-electrode voltage clamp, Xenopus oocytes)", "format": "cell-based", "conditions": "after 10 µM 3-NCS and removal of non-covalently reacted 3-NCS; read-out: % allosteric modulation, 3-NCS", "description": "as §1, §2, §3"}, "[6]": {"molecular_target": "T1, α1S205Cβ2γ2 GABAA receptor", "parameters": "method as in PMID 19804380", "conditions": "10 µM 3-NCS; cited from earlier work"}, "[7]": {"molecular_target": "wild-type α1β2γ2 receptors", "parameters": "method as in PMID 19804380", "conditions": "cited from earlier work"}, "[8]": {"test_system": "α1S204Cβ2γ2 GABAA receptor", "parameters": "method as in PMID 19804380", "conditions": "10 µM 3-NCS; cited from earlier work"}, "[9]": {"test_system": "α3T231Cβ2γ2 GABAA receptor", "test": "Covalent reaction at the functional level (two-electrode voltage clamp, Xenopus oocytes)", "format": "cell-based", "conditions": "after 10 µM 3-NCS and removal of non-covalently reacted 3-NCS", "description": "as §1\n(§4) Currents were measured using a modified two-electrode voltage clamp amplifier Oocyte clamp OC-725 (Warner Instruments) in combination with a XY-recorder (90% response time 0.1s) or digitized at 100 Hz using a PowerLab 2/20 (AD Instruments) using the computer programs Chart (ADInstruments GmbH, Spechbach, Germany). Tests with a model oocyte were performed to ensure linearity in the larger current range. The response was linear up to 15 µA.\nas §3, with “amplitude. GABA was applied for 20 s alone or in combination with allosteric compound. 6 ml of the covalent reacting compound was applied to the oocyte and incubated for 3 min while stopping the flow of the perfusion medium. Modulation of GABA currents was expressed as (I(modulator + GABA)/IGABA –1) * 100%. The perfusion system was cleaned between drug applications by washing with DMSO to avoid contamination.” for “amplitude.”"}, "[10]": {"test_system": "T2, α5T210Cβ2γ2 GABAA receptor", "T2 construct": "expressed in transfected cells; host or cells: Xenopus laevis oocytes (cRNA injection)", "test": "Covalent reaction at the functional level (two-electrode voltage clamp, Xenopus oocytes)", "format": "cell-based", "conditions": "after 10 µM 3-NCS and removal of non-covalently reacted 3-NCS", "description": "as §1, §4\nas §3, with “amplitude. GABA was applied for 20 s alone or in combination with allosteric compound. 6 ml of the covalent reacting compound was applied to the oocyte and incubated for 3 min while stopping the flow of the perfusion medium. Modulation of GABA currents was expressed as (I(modulator + GABA)/IGABA –1) * 100%. The perfusion system was cleaned between drug applications by washing with DMSO to avoid contamination.” for “amplitude.”"}, "[11]": {"test_system": "α6N204Cβ2γ2 GABAA receptor", "test": "Covalent reaction at the functional level (two-electrode voltage clamp, Xenopus oocytes)", "format": "cell-based", "conditions": "after 10 µM 3-NCS and removal of non-covalently reacted 3-NCS", "description": "as §1, §4\nas §3, with “amplitude. GABA was applied for 20 s alone or in combination with allosteric compound. 6 ml of the covalent reacting compound was applied to the oocyte and incubated for 3 min while stopping the flow of the perfusion medium. Modulation of GABA currents was expressed as (I(modulator + GABA)/IGABA –1) * 100%. The perfusion system was cleaned between drug applications by washing with DMSO to avoid contamination.” for “amplitude.”"}, "[12]": {"test_system": "wild type GABAA receptors", "test": "Covalent reaction at the functional level (two-electrode voltage clamp, Xenopus oocytes)", "format": "cell-based", "conditions": "all wild type receptors", "description": "as §1, §4\nas §3, with “amplitude. GABA was applied for 20 s alone or in combination with allosteric compound. 6 ml of the covalent reacting compound was applied to the oocyte and incubated for 3 min while stopping the flow of the perfusion medium. Modulation of GABA currents was expressed as (I(modulator + GABA)/IGABA –1) * 100%. The perfusion system was cleaned between drug applications by washing with DMSO to avoid contamination.” for “amplitude.”"}, "[13]": {"test_system": "α5T208Cβ2γ2 GABAA receptor", "test": "Covalent reaction at the functional level (two-electrode voltage clamp, Xenopus oocytes)", "format": "cell-based", "conditions": "after 10 µM 3-NCS and removal of non-covalently reacted 3-NCS", "description": "as §1, §4\nas §3, with “amplitude. GABA was applied for 20 s alone or in combination with allosteric compound. 6 ml of the covalent reacting compound was applied to the oocyte and incubated for 3 min while stopping the flow of the perfusion medium. Modulation of GABA currents was expressed as (I(modulator + GABA)/IGABA –1) * 100%. The perfusion system was cleaned between drug applications by washing with DMSO to avoid contamination.” for “amplitude.”"}, "[14]": {"test_system": "α1S204Cβ2γ2 GABAA receptor", "test": "Covalent reaction at the functional level (two-electrode voltage clamp, Xenopus oocytes)", "format": "cell-based", "conditions": "after 10 µM 3-NCS and removal of non-covalently reacted 3-NCS", "description": "as §1, §4\nas §3, with “amplitude. GABA was applied for 20 s alone or in combination with allosteric compound. 6 ml of the covalent reacting compound was applied to the oocyte and incubated for 3 min while stopping the flow of the perfusion medium. Modulation of GABA currents was expressed as (I(modulator + GABA)/IGABA –1) * 100%. The perfusion system was cleaned between drug applications by washing with DMSO to avoid contamination.” for “amplitude.”"}, "[15]": {"test_system": "α3S230Cβ2γ2 GABAA receptor", "test": "Covalent reaction at the functional level (two-electrode voltage clamp, Xenopus oocytes)", "format": "cell-based", "conditions": "after 10 µM 3-NCS and removal of non-covalently reacted 3-NCS", "description": "as §1, §4\nas §3, with “amplitude. GABA was applied for 20 s alone or in combination with allosteric compound. 6 ml of the covalent reacting compound was applied to the oocyte and incubated for 3 min while stopping the flow of the perfusion medium. Modulation of GABA currents was expressed as (I(modulator + GABA)/IGABA –1) * 100%. The perfusion system was cleaned between drug applications by washing with DMSO to avoid contamination.” for “amplitude.”"}, "[16]": {"test_system": "α6S203Cβ2γ2 GABAA receptor", "test": "Covalent reaction at the functional level (two-electrode voltage clamp, Xenopus oocytes)", "format": "cell-based", "conditions": "after 10 µM 3-NCS and removal of non-covalently reacted 3-NCS", "description": "as §1, §4\nas §3, with “amplitude. GABA was applied for 20 s alone or in combination with allosteric compound. 6 ml of the covalent reacting compound was applied to the oocyte and incubated for 3 min while stopping the flow of the perfusion medium. Modulation of GABA currents was expressed as (I(modulator + GABA)/IGABA –1) * 100%. The perfusion system was cleaned between drug applications by washing with DMSO to avoid contamination.” for “amplitude.”"}, "[17]": {"test_system": "α5S209Cβ2γ2 GABAA receptor", "test": "Covalent reaction at the functional level (two-electrode voltage clamp, Xenopus oocytes)", "format": "cell-based", "conditions": "after 10 µM 3-NCS and removal of non-covalently reacted 3-NCS", "description": "as §1, §4\nas §3, with “amplitude. GABA was applied for 20 s alone or in combination with allosteric compound. 6 ml of the covalent reacting compound was applied to the oocyte and incubated for 3 min while stopping the flow of the perfusion medium. Modulation of GABA currents was expressed as (I(modulator + GABA)/IGABA –1) * 100%. The perfusion system was cleaned between drug applications by washing with DMSO to avoid contamination.” for “amplitude.”"}}, "note": "Read-outs that look alike come from different tables or passages of the source."}
{"smiles": "CN1C(=O)C(N=C=S)N=C(c2ccccc2)c2cc([N+](=O)[O-])ccc21", "note": "(stereo not shown) [3-NCS]", "values": [{"measurement": "Ki", "setting": "α5β1γ2 receptors", "value": "9840 ± 1480", "unit": "nM"}, {"measurement": "activation at 10 µM", "setting": "[1]", "value": "35 ± 10", "unit": "%"}, {"measurement": "activation at 10 µM", "setting": "[2]", "value": "60 ± 43", "unit": "%"}, {"measurement": "activation at 10 µM", "setting": "[3]", "value": "1 ± 10", "unit": "%"}, {"measurement": "activation at 10 µM", "setting": "[4]", "value": "119 ± 51", "unit": "%"}, {"measurement": "activation at 10 µM", "setting": "[5]", "value": "53 ± 29", "unit": "%"}, {"measurement": "Covalent reaction with 3-NCS (in words)", "setting": "[6]", "value": "resulted in covalent reaction"}, {"measurement": "Ki", "setting": "[7]; radioligand [^3H]Ro15–1788, read-out: Ki, displacement of [^3H]Ro15–1788", "value": "340 ± 16", "unit": "nM"}, {"measurement": "Ki", "setting": "[7]; radioligand [^3H]flunitrazepam, read-out: Ki, displacement of [^3H]flunitrazepam", "value": "240 ± 55", "unit": "nM"}, {"measurement": "Covalent reaction with 3-NCS (in words)", "setting": "[8]", "value": "did not covalently react"}, {"measurement": "% allosteric modulation, 3-NCS", "setting": "[9]", "value": "28±16", "unit": "%"}, {"measurement": "% allosteric modulation, 3-NCS", "setting": "[10]", "value": "10±5", "unit": "%"}, {"measurement": "% allosteric modulation, 3-NCS", "setting": "[11]", "value": "−4±6", "unit": "%"}, {"measurement": "Irreversible change of GABA current amplitude after 3-NCS (in words)", "setting": "[12]", "value": "failed to show any changes in the current amplitude"}, {"measurement": "% allosteric modulation, 3-NCS", "setting": "[13]", "value": "23±18", "unit": "%"}, {"measurement": "% allosteric modulation, 3-NCS", "setting": "[14]", "value": "4±4", "unit": "%"}, {"measurement": "% allosteric modulation, 3-NCS", "setting": "[15]", "value": "15±11", "unit": "%"}, {"measurement": "% allosteric modulation, 3-NCS", "setting": "[16]", "value": "0±2", "unit": "%"}, {"measurement": "% allosteric modulation, 3-NCS", "setting": "[17]", "value": "46±17", "unit": "%"}]}
